By Ki is commonly meant a measure of affinity in units of concentration, obtained from inhibition or displacement. One may read the inhibition as the share of the control response that was lost under treatment.

Molecules are shown by their SMILES.

The source of these data is paper PMC11378298 (ACS Chemical Neuroscience, 2024).

For data set [1], the target named is T1, GSK-3β (Homo sapiens, UniProt P49841). The data set is described as follows: Kinetics of GSK-3β inhibition (ADP-Glo, varied ATP). Type of data set: biochemical. Set-up: purchased Promega. The text has this: Each data point was collected in triplicate.
T1 sequence (P49841 whole entry): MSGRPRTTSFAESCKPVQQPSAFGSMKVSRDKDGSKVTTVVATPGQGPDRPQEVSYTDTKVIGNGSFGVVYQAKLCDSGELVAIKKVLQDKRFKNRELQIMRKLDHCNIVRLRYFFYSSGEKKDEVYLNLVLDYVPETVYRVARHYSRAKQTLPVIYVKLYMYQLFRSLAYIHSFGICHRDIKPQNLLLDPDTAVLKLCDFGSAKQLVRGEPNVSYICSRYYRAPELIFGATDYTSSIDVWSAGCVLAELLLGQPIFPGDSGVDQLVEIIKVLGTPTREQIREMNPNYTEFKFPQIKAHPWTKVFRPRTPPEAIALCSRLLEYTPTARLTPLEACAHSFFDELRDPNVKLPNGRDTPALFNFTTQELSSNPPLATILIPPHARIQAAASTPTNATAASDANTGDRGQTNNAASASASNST
Kinetics of GSK-3β inhibition by compound 36
diverse ATP concentrations to determine the mechanism of enzyme - inhibitor interaction. The
(1 picture or pasted object on this page, not shown here) […]
(In general: In ADP-Glo the light output rises with the ADP produced.)

The test system of the next data set is HT-22 cells. The data set is described as follows: Cytotoxicity in HT-22 cells (PrestoBlue). The settings on record: whole range of concentrations 0.1–100 μM. How it is done:
The compounds were tested at 5 concentrations (0.1, 1, 10, 50, and 100 μM).
Mouse Hippocampal Neuronal Cell Line (HT-22) was a generous gift from Dr Bartosz Pomierny of the Department of Biochemical Toxicology, Jagiellonian University Medical College, Krakow, Poland. Cells were cultured in Dulbecco’s modified Eagle’s Medium—high glucose (DMEM, Glutamax Thermo Fisher) supplemented with 10% heat-inactivated fetal bovine serum (Thermo Fisher), 100 IU/mL penicillin (Merck) and 100 μg/mL streptomycin (Merck). Cells were cultured in flasks (area 175 cm^2, Nunc), and incubated at 37 °C, 5% CO2. For the measurement of cell viability and neuroprotective effect against okadaic acid cells were placed in a 96-well culture plate (2 × 10^4 cells per well, Falcon). Before the tests, cells were grown for 24 h in the incubator (37 °C, 5% CO2).
Cell viability was evaluated using the PrestoBlue reagent (ThermoFisher), according to the manufacturer’s procedures.[87] Following 24 h of incubation with the tested molecule, PrestoBlue reagent was added to a microplate well in an amount equal to one-tenth of the remaining medium volume. The resulting mixture was incubated for 15 min at 37 °C, and the fluorescence intensity (EX 530 nm; EM 580 nm) was measured in the plate reader POLARstar Omega, (BMG Labtech).

Data set [2] concerns the target T1, GSK-3β. Nature of the data set: biochemical. How it is done:
(§1) We selected those kinases with the greatest potential for interaction based on structural homology, as indicated by the ChemPartner panel.
(§2) Figure 7 Kinase selectivity for compound 36. Data are presented as percent of kinases’ activity in the presence of 1 μM of compound 36. Kinases’ panel (CMGC group, human enzymes): CDK1/cyclinB, CDK2/cyclinA, CDK4/cyclinD3, CDK6/cyclinD3, CDK7/cyclinH/MAT1, CDK9/cyclinT1, DYRK1A, DYRK1B, GSK-3α, GSK-3β, JNK2α2, JNK3, MAPK1, MAPK2, SAPK2a(T106M), SAPK2b, SAPK3.
(§3) Selectivity studies were performed at Eurofins in Kinase Enzymatic Radiometric [Km ATP]
(§4) Kinase Profiler Lead Hunter Assay. The percentage of enzymatic activity was measured at the
(§5) concentration of 1 µM of compound 36 in duplicate for 17 selected kinases.
(§6) Table S12. Inhibitory activity of compound 36 against selected kinases.
(§7) *Where n = 2, the value reported here is actually range / √ 2.

The next data set concerns the target T2, CDK7/cyclinH/MAT1 (Homo sapiens, UniProt P50613).
T2 construct: purchased Eurofins (KinaseProfiler service)
Nature of the data set: Kinase selectivity, radiometric [Km ATP] KinaseProfiler. Type of data set: biochemical. The protocol: as §1, §2, §3, §4, §5, §6, §7

Another data set deals with T3, GSK-3α (Homo sapiens, UniProt P49840).
T3 construct: purchased Eurofins (KinaseProfiler service)
T3 sequence (P49840 whole entry): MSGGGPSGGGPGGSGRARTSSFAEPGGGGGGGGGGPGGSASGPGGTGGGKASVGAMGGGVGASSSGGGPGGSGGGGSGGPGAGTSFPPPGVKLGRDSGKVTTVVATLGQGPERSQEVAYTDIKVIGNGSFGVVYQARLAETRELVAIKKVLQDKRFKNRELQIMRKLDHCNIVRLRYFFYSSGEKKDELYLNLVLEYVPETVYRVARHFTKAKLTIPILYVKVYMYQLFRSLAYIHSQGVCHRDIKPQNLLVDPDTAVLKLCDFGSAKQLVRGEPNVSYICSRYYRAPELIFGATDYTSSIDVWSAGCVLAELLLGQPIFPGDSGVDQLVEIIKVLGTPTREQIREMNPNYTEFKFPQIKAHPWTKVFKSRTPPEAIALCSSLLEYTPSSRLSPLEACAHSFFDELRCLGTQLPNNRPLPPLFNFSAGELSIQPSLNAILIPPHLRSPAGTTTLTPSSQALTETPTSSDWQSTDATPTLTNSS
Described as above. Type of data set: biochemical. The settings on record: duplicate. The protocol:
as §1, §2, §3, §4, §5, §6, §7

Another data set has as its target T4, SAPK2a(T106M) (Homo sapiens, UniProt Q16539, T106M).
T4 construct: purchased Eurofins (KinaseProfiler service)
The data set is described as above. The format is biochemical. The protocol: as §1, §2, §3, §4, §5, §6, §7

The next data set deals with T5, MAPK1 (Homo sapiens, UniProt P27361).
T5 construct: purchased Eurofins (KinaseProfiler service)
T5 sequence (P27361 whole entry): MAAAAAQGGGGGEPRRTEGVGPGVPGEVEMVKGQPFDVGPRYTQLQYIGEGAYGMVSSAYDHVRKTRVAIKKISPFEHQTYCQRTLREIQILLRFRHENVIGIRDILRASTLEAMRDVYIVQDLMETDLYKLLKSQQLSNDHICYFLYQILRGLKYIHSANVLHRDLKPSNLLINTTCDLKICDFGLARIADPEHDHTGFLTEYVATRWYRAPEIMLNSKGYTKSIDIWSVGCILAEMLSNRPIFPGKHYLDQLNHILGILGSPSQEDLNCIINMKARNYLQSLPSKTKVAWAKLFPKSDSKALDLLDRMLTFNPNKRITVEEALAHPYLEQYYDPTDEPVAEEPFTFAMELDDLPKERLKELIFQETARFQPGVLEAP
Described as above. The format is biochemical. How it is done:
as §1, §2, §3, §4, §5, §6, §7

A further data set addresses T6, SAPK2b (Homo sapiens, UniProt Q15759).
T6 construct: purchased Eurofins (KinaseProfiler service)
Described as above. The format is biochemical. The protocol:
as §1, §2, §3, §4, §5, §6, §7

For a further data set, the target named is T7, CDK4/cyclinD3 (Homo sapiens, UniProt P11802).
T7 construct: purchased Eurofins (KinaseProfiler service)
T7 sequence (P11802 whole entry): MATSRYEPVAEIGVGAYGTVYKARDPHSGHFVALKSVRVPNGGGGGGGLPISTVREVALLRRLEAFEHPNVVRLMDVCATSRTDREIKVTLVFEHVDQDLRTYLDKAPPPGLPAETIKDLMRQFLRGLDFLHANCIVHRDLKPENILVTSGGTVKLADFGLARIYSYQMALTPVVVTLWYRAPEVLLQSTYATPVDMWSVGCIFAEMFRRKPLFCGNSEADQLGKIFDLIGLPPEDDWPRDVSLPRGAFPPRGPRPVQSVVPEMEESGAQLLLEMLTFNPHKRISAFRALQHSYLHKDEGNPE
T7 sequence (P30281 whole entry partner): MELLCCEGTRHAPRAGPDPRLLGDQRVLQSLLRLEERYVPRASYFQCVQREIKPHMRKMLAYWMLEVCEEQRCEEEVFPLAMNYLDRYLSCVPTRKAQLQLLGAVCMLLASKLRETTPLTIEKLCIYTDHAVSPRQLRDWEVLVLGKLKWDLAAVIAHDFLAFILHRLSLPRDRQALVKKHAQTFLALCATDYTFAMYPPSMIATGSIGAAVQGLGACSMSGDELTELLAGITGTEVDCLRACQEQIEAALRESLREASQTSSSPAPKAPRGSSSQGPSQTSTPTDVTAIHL
Described as above. The format is biochemical. The protocol: as §1, §2, §3, §4, §5, §6, §7

T4 sequence (Q16539 whole entry T106M): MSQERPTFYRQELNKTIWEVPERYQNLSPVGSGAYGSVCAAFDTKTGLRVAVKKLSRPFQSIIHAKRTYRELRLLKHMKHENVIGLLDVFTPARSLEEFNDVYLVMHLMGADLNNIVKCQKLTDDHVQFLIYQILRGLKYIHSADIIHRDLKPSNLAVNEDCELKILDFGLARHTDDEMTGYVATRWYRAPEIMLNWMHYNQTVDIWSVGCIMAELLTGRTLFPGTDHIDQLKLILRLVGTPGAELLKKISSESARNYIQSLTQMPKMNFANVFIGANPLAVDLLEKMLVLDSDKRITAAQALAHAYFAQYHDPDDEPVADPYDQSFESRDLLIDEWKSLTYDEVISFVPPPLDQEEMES
T6 sequence (Q15759 whole entry): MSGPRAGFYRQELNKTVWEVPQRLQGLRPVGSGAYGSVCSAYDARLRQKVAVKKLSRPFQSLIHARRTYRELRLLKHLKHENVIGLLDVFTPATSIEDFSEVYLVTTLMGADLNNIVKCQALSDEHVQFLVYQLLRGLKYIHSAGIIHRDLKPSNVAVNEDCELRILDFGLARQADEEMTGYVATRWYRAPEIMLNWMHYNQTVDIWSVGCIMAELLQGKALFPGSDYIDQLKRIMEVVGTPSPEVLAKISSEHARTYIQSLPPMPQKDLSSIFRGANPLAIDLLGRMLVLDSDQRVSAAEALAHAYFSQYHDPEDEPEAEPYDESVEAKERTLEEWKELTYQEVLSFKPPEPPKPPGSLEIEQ
T2 sequence (P50613 whole entry): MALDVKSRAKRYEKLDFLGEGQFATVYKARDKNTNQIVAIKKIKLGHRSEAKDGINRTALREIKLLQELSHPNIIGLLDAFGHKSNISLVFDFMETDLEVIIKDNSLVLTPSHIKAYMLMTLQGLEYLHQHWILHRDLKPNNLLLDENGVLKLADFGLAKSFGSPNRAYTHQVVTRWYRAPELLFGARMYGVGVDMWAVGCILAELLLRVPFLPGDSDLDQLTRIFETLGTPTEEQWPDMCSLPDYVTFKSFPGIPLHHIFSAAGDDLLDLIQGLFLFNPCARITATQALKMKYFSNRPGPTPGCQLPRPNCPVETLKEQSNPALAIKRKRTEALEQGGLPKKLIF
T2 sequence (P51946 whole entry partner): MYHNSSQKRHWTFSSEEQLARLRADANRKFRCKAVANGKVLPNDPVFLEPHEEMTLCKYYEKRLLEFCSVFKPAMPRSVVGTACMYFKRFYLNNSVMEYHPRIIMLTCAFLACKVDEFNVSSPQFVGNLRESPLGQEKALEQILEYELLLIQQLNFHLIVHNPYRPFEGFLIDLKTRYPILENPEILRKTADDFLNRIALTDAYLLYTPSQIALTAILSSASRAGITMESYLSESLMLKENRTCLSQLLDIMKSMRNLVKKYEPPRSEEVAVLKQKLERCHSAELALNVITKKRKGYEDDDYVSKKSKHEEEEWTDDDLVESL
T2 sequence (P51948 whole entry partner): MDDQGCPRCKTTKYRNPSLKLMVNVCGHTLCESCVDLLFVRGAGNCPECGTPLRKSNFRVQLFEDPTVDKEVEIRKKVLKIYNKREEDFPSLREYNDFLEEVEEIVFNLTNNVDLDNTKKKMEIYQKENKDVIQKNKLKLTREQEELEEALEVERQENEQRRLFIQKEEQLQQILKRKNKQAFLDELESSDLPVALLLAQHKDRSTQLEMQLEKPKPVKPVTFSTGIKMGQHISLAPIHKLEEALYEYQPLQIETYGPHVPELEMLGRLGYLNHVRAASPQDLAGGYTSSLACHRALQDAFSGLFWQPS

In turn, `O=C(Nc1cc(-c2ccc(-c3ncon3)s2)ccn1)C1CC1` [Compound 36, N-(4-(5-(1,2,4-Oxadiazol-3-yl)thiophen-2-yl)pyridin-2-yl)cyclopropanecarboxamide] yielded a Ki at GSK-3β [1] of 0.0603 µM. Further, on GSK-3β [1] (Lineweaver–Burk and Cornish–Bowden plots, varied ATP), the type of inhibition result was “ATP-competitive”. The “cell viability in HT-22 cells” value in the data set with HT-22 cells is “No significant decrease in cell viability”. On GSK-3β [2] (1 μM, duplicate), the “% of enzyme activity at 1μM of 36 ±SD, GSK-3β” value is recorded as 5±1%. Moreover, the inhibition at 1 µM at GSK-3β [2] (read-out: inhibition of GSK-3β) is 92%; against CDK7/cyclinH/MAT1, less than 50%; at SAPK2a(T106M), less than 50%; at MAPK1, less than 50%; against SAPK2b, less than 50%; against CDK4/cyclinD3, less than 50%. For the same molecule, the “% of enzyme activity at 1μM of 36 ±SD, CDK7/cyclinH/ MAT1” value on CDK7/cyclinH/MAT1 (duplicate) is given as 93±7%. Further, at GSK-3α, the “% of enzyme activity at 1μM of 36 ±SD, GSK-3α” value stood at 2±1%. Also, the “% of enzyme activity at 1μM of 36 ±SD, SAPK2a(T106M)” value on SAPK2a(T106M) (duplicate) turned out to be 95±7%. Also, the “% of enzyme activity at 1μM of 36 ±SD, MAPK1” value on MAPK1 (duplicate) stood at 100±1%. Also, the “% of enzyme activity at 1μM of 36 ±SD, SAPK2b” value on SAPK2b (duplicate) was found to be 100±2%. Besides, the “% of enzyme activity at 1μM of 36 ±SD, CDK4/cyclinD3” value at CDK4/cyclinD3 (duplicate) is reported as 97±9%.
